Source: US20020068749A1, “AIDS REMEDY” (priority 1996, published 2002)
≈ marks a conversion by molar mass, not a printed value.

Tests used:
[1] = tested on: IIIB strain of HIV-1 in CEM-SS cells; experiment: Measurement of anti-HIV activity in vitro (XTT method, control of cellular denaturalization due to HIV infection); format: cell-based
Description: An increase in the synergistic anti-virus activity in the combined use of KNI-272 and Saquinavir is shown by a specific experimental example. The anti-virus activity was evaluated as the capability of controlling generation of infectious virus particles in vitro. The effect of cell extinction to HIV infection was calculated when Saquinavir methanesulfonate and KNI-272 respectively or both were added to a culture liquid, to determine the concentration region where a synergistic increase in the anti-virus activity in the combined use of the two compounds is conspicuous. Measurement of the anti-virus activity in vitro was carried out according to the following procedure. In the description hereinafter the concentration of methanesulfonate is indicated as the concentration converted into Saquinavir. The concentration of KNI-272 is indicated as the concentration of the compound itself.
A IIIB strain of HIV-1 was used as an HIV wild strain and CEM-SS cells were used as infected cells in the above-mentioned culture. The amount of HIV sufficient to kill all CEM-SS cells 6 days after inoculation (multiplicy of infection, MOI of 0.01-0.05) was determined and this amount of HIV was added. A 96 well micro-titre plate was used to inoculate 5×10^3 CEM-SS cells per well in this case. At the time of inoculation of cells, a test compound was added to the culture medium to a prescribed concentration. Three specimens were used for each test level. The following controls were used (1) as calorimetric controls: a sample with only a test compound added to the culture medium, (2) as a cytotoxic control for a test compound: a sample with only cells and the test compound added to the culture medium, (3) as a virus control: a sample with the cells inoculated with only a virus, and (4) as a cell survival control, a sample consisting only of cells. In addition, AZT and DDC which are compounds with a known anti-HIV activity were used as positive controls. After the cells were added, they were inoculated with the infecting virus, followed by incubation at 37° C.for 6 days. Cellular denaturalization due to HIV infection was colorimetrically measured for each well. Employing the colorimetry, was the metabolism from XTT Tetrazolium to XTT Formazan was evaluated. This colorimetry is called the XTT method (see Weislow et al., Journal of the National Cancer Institute 81, 577-586 (1989)). After the above-mentioned incubation, a prescribed amount of XTT was added to each well and incubation was continued for a further four hours at 37° C. to measure the amount of XTT Formazan produced by metabolism by means of calorimetric quantitation.
The anti-HIV activity for each experimental level was calculated by comparing the number of undenatured cells measured by the above-mentioned assay with the corresponding number of cells in the four control groups. Specifically, the proportion of cellular denaturalization due to HIV infection controlled by the addition of the test compound was calculated. A systematic deviation between the several experiments was corrected based on the results of AZT and ddC used as positive controls.
In this example, 0 ng/ml and several concentrations in the range of 0.625-10.0 ng/ml of Saquinavir methanesulfonate and 0 ng/ml and several concentrations in the range of 0.313-80.0 ng/ml of KNI-272 were used. The results (anti-HIV activities) obtained under these conditions using either one of these medicaments or both medicaments in combination are shown in Table 1.
With regard to this concentration region wherein no synergistic increase can be seemingly identified, a similar evaluation was carried out adding a larger amount of HIV to qualitatively evaluate the presence or absence of a synergistic effect. […] This affords qualitative results rather than quantitative results.
An increase in the synergistic anti-virus activity in the combined use of KNI-272 and Ritonavir is shown by a specific experimental example. […]

[2] = Dynamics in vivo (concentration in plasma over time) of KNI-272 and Ritonavir in dogs
[3] = Change of concentration in plasma over time after oral administration to rats (KNI-272 with Indinavir or Nelfinavir); conditions: for AUC: rat, plasma, po, 40 mg/kg, AUC value of Indinavir
Description: In this example, the change in concentration in blood of KNI-272 over time when the KNI-272 was orally administered in combination with Indinavir, i.e. the change in the concentration of a non-binding type of drug in plasma over time, was measured to evaluate the effect of drug interactions on fluctuations of dynamics in vivo. A commercially available Indinavir for oral administration, CRIXIVAN™ (manufactured by Merck), was used after dissolving Indinavir sulfate in a prescribed concentration. As KNI-272, a suspension prepared from a fine powder of KNI-272 was used. Rats were used as test animals. […] In addition, each compound was individually administered to control groups to evaluate the dynamics in vivo. The animals were fasted for 16 hours before administration. The measurement of the change in the non-binding drug concentration in plasma over time was carried out according to a conventional method using blood samples collected from the test animals.
The method of evaluation was applied to the above-mentioned system of Indinavir and KNI-272 was followed. […] In this example, a dosage of 50 mg/kg was selected for both Nelfinavir and KNI-272.

[4] = tested on: HIV Wild strain (IIIB); experiment: Anti-virus activity IC50 against wild strain; format: cell-based; conditions: Wild strain (IIIB)
[5] = tested on: Indinavir resistant strain; experiment: Anti-virus activity IC50 against Indinavir resistant strain; format: cell-based, HIV; conditions: Human immunodeficiency virus 1, read-out: Anti-virus activity IC50
Excerpt: (§1) A drug resistant strain virus is a resistance strains induced in a cell culture system in vitro while maintaining infection in the presence of each medicament through generations.

[6] = tested on: KNI-272 resistant strain; experiment: microbe, parasite or virus in culture; format: cell-based, HIV
Excerpt: as §1

[7] = tested on: Ritonavir resistant strain; experiment: Anti-virus activity IC50 against Ritonavir resistant strain; format: cell-based, HIV; conditions: Ritonavir resistant strain
[8] = Indinavir 40 mg/kg + KNI-272 40 mg/kg p.o. at the same time
[9] = Human immunodeficiency virus 1, read-out: Anti-virus activity IC50

In the case of `CC(C)c1nc(CN(C)C(=O)NC(C(=O)N[C@@H](Cc2ccccc2)C[C@H](O)[C@H](Cc2ccccc2)NC(=O)OCc2cncs2)C(C)C)cs1` (relative stereo) [Ritonavir, [5S-(5R*, 8R*, 10R*,11R*)]-10-hydroxy-2-methyl-5-(1-methylethyl)-1-[2-(1-methylethyl)-4-thiazolyl]-3,6-dioxo-8,11-bis(phenylmethyl)-2,4,7,12-tetraaza-tridecane-13-hydroxyacid 5-thiazolylmethyl ester, reference compound], the “Anti-HIV activity (%)” value ([1]; Ritonavir 1.25 ng/ml alone) is reported as 2.0%, the “Anti-HIV activity (%)” value ([1]; Ritonavir 2.5 ng/ml alone) is reported as 2.3% and the “Anti-HIV activity (%)” value ([1]; Ritonavir 5.0 ng/ml alone) is reported as 0.5%. The “Anti-HIV activity (%)” value ([1]; Ritonavir 10.0 ng/ml alone) was 8.9%, the “influence of combined use of KNI-272 on the dynamics in vivo of Ritonavir” value ([2]; KNI-272 administered immediately after Ritonavir, dogs) was “no apparent influence” and the “MRT value (index of the half-life of concentration in blood)” value ([2]; medicaments individually administered) was ≥ 180 minutes and more than 180 minutes.

With `CC(C)(C)NC(=O)[C@@H]1CN(Cc2cccnc2)CCN1C[C@@H](O)C[C@@H](Cc1ccccc1)C(=O)N[C@H]1c2ccccc2C[C@H]1O` [Indinavir, [1(1S, 2R),5(S)]-2,3,5-trideoxy-N-(2,3-dihydro-2-hydroxy-1H-indane-1-yl)-5-[2-(1,1-dimethylethyl)aminocarbonyl-4-(3-pyridinylmethyl)-1-piperazinyl]-2-(phenylmethyl)-D-erythro-pentonamide, reference compound] the “increase in maximum concentration in blood value (Cmax) of Indinavir” value [3, 8] was “as much as twice”, the “increase in the AUC value of Indinavir” value [3, 8] was “almost two times” and the AUC ([3]; Indinavir 40 mg/kg p.o. individually) was 17200 ng·h/mL. For the same molecule, the AUC ([3]; Indinavir 40 mg/kg p.o. together with KNI-272 40 mg/kg) was 44300 ng·h/mL, the IC50 [4, 9] was 0.009 µg/mL (≈ 0.0147 µM) and the IC50 [5] was 0.576 µg/mL (≈ 0.938 µM). For the same molecule, the IC50 [6, 9] was 0.03 µg/mL (≈ 0.0489 µM).

For `Cc1c(O)cccc1C(=O)N[C@@H](CSc1ccccc1)[C@H](O)CN1C[C@H]2CCCC[C@H]2C[C@H]1C(=O)NC(C)(C)C` (relative stereo) [Nelfinavir, [3S-[2(2S*, 3S*), 3α, 4α, 8aβ]]-N-1,1-dimethylethyl-decahydro-2-[2-hydroxy-3-[(3-hydroxy-2-methylbenzoyl)amino]-4-(phenylthio)butyl]-3-isoquinolinecarboxamide, reference compound], the “AUC value for Nelfinavir” value ([3]; Nelfinavir 50 mg/kg p.o. only) was 130 µg·min/mL, the “AUC value for Nelfinavir” value ([3]; Nelfinavir 50 mg/kg p.o. simultaneously with KNI-272 50 mg/kg) was 215 µg·min/mL and the “increase in AUC value for Nelfinavir” value ([3]; Nelfinavir 50 mg/kg with KNI-272 50 mg/kg vs alone) was roughly 1.6 times. For the same molecule, the “Anti-virus activity IC50” value [4] was 0.007 µg/mL, the “Anti-virus activity IC50” value ([6]; KNI-272 resistant strain) was 0.030 µg/mL and the “Anti-virus activity IC50” value [7] was 0.124 µg/mL.
